SMILES strings stand for the structures.

The test system of one experiment is Human Platelet. The experiment can be described thus: In-vitro Human Platelet Aggregation in PRP (ADP induced). The format is cell-based. The note with it: PRP (platelet rich plasma), 37°C, read-out: IC₅₀(µM) Inhibitor of ADP induced Platelet aggregation. As to the method:
The compounds of the above invention are tested for platelet binding inhibitory activity in the following assays: • 1. In-vitro Human Platelet Aggregation in PRP: Blood is drawn from healthy human volunteers who had no medication for at least two weeks. 8.4 ml of venous blood are collected into 1.4 ml of ACD solution (citric acid 0.8 %, sodium citrate 2.2 %, hirudin 0.6 u/ml) and centrifuged for 10 min. at 120 g. The platelet rich plasma (PRP) is carefully removed and remaining blood is further centrifuged at 1200 g for 15 min. to separate platelet poor plasma (PPP). For aggregation studies the aggregometer is adjusted by using PPP and PRP. ADP is then added tp PRP which is kept at 37°C and stirred constantly at 1000 rpm. The aggregation of platelets causes an increase in transparency of PRP which is recorded. • 2. Preparation of Gel Filtered Platelets (GFP): Platelet rich plasma (PRP) is collected as mentioned in the above procedure. Its pH is adjusted to 6.5 with ACD solution and then centrifuged at 285 g for 20 min.. The resulting pellet is resuspended in Tyrode's buffer (NaCl, 7.01 g/l; KCl, 0194 g/l; NaHCO₃, 1.01 g/l; Glucose, 1.09 g/l; NaH₂PO₄, 0.061 g/l; Hepes, 2.380 g/l; albumin, 3.5 g/l) and the platelet suspension is applied on to a ^RSepharose CL 20 column. Equilibrium and elution is done with Tyrode's buffer. Platelets are recovered in the void volume. Final platelet concentration is adjusted to 4 X 108 platelets/ml. For the aggregation studies, GFP in Tyrodes buffer is mixed with calcium chloride (final concentration […]) and an agonist (ADP or Thrombin) with or without test compound (1 to 300 µM) and incubated at 37°C for 3 min.. After the addition of fibrinogen (final conc. 1 mg/ml) the aggregation is recorded.
Aggregation maximum for PRP or GFP without any inhibitor is taken as 100 % aggregation and is compared with aggregation maximum of RPR or GFP incubated with the test compound.

The test system of experiment [1] is Gel Filtered Platelets (GFP). The experiment can be described thus: ADP induced aggregation of Gel Filtered Platelets (GFP). The format is cell-based. The settings on record: Homo sapiens, Platelet, 0.05 h, GFP (gel filtered platelets) in Tyrode's buffer, fibrinogen 1 mg/ml, 37°C for 3 min, read-out: IC₅₀(µM) Inhibitor of ADP induced Platelet aggregation. As to the method: The compounds of the above invention are tested for platelet binding inhibitory activity in the following assays: • 1. In-vitro Human Platelet Aggregation in PRP: Blood is drawn from healthy human volunteers who had no medication for at least two weeks. 8.4 ml of venous blood are collected into 1.4 ml of ACD solution (citric acid 0.8 %, sodium citrate 2.2 %, hirudin 0.6 u/ml) and centrifuged for 10 min. at 120 g. The platelet rich plasma (PRP) is carefully removed and remaining blood is further centrifuged at 1200 g for 15 min. to separate platelet poor plasma (PPP). For aggregation studies the aggregometer is adjusted by using PPP and PRP. ADP is then added tp PRP which is kept at 37°C and stirred constantly at 1000 rpm. The aggregation of platelets causes an increase in transparency of PRP which is recorded. • 2. Preparation of Gel Filtered Platelets (GFP): Platelet rich plasma (PRP) is collected as mentioned in the above procedure. Its pH is adjusted to 6.5 with ACD solution and then centrifuged at 285 g for 20 min.. The resulting pellet is resuspended in Tyrode's buffer (NaCl, 7.01 g/l; KCl, 0194 g/l; NaHCO₃, 1.01 g/l; Glucose, 1.09 g/l; NaH₂PO₄, 0.061 g/l; Hepes, 2.380 g/l; albumin, 3.5 g/l) and the platelet suspension is applied on to a ^RSepharose CL 20 column. […] After the addition of fibrinogen (final conc. 1 mg/ml) the aggregation is recorded. […]

For the compound `COC(=O)COc1ccc(CCC(=O)c2c(OC)cc(OC)c(C3CCN(C)CC3)c2O)cc1` [Compound 7], the values for the IC50 (in the experiment with Human Platelet; in experiment [1]) were 8 µM and 2 µM, respectively. In the case of `COC(=O)COc1ccc(C=CC(=O)c2c(OC)cc(OC)c(C3CCN(C)CC3O)c2O)cc1` (centres unmarked) [Compound 2], the results for the IC50 (with Human Platelet; in experiment [1]) were 5.3 µM and 0.53 µM, respectively. Turning to `COC(=O)COc1ccc(C=CC(=O)c2c(OC)cc(OC)c(C3CCN(C)CC3)c2O)cc1` [Compound 6], the IC50 in the experiment on Human Platelet turned out to be 17 µM.
